From patent US20230129359A1, “MUSCARINIC RECEPTOR 4 ANTAGONISTS AND METHODS OF USE” (Neurocrine Biosciences, Inc., priority 2020, published 2023)

Biological target: T1, human M4 receptor (Homo sapiens, UniProt P08173)
T1 construct: expressed in transfected cells; host or cells: CHO cells
T1 sequence (P08173 1-479): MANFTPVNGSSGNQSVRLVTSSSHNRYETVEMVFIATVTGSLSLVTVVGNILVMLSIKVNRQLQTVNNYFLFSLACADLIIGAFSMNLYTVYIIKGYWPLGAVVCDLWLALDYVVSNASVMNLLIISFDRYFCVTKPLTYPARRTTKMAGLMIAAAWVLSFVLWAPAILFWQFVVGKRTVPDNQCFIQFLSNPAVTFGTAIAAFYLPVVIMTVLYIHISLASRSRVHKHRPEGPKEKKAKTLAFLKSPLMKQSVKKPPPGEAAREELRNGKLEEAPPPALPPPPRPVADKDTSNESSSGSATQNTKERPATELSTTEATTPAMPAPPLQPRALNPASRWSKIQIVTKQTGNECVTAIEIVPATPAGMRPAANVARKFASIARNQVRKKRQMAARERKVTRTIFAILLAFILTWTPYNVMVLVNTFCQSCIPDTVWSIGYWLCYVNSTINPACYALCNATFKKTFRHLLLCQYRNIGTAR
Assay: Radioligand ([3H]N-methylscopolamine) binding assay, membranes from CHO cells expressing human M4 receptor
Details: Ki against human M4 receptor; membranes from CHO cells; tritiated N-methylscopolamine 1.5 nM; read-out: K
Experimental: Binding affinity (Ki) for the compounds was measured by inhibition of radioligand binding to membranes from CHO cells expressing human M4 receptor. Membranes were prepared by nitrogen cavitation and differential centrifugation as previously described (Hoare et al., Mol. Pharmacol. 2003 March; 63(3): 751-65). The radioligand employed was tritiated N-methylscopolamine, used at a concentration of 1.5 nM. A dose-response of twelve concentrations of compound was used, ranging from […]. The assay buffer was 50 mM HEPES, 100 mM NaCl, 5 mM MgCl2, 1 mM ethylenediaminetetraacetic acid, pH-adjusted to pH 7.4. Membranes, radioligand and compound were incubated together for 90 minutes at 37° C., in a total volume of 150 μL in a 96-well plate. Receptor-bound radioligand was then collected by harvesting the assay over glass fiber filters pretreated with polyethylenimine to trap the cell membranes, using rapid vacuum filtration. Harvesting and radioactivity counting was conducted as previously described (see, e.g., Hoare et al., Mol. Pharmacol. 2003 63(3):751-65); Erratum at Mol. Pharmacol. 2005 July; 68(1): 260).

Ki [µM]	SMILES
0.01 to 0.1	C[C@@H]1CN(c2cc(F)c(F)c(F)c2)CCN1C(=O)NC1CC2(C1)CN(Cc1ccccc1)C2 [Compound 44, (2R)-N-{2-benzyl-2-azaspiro[3.3]heptan-6-yl}-2-methyl-4-(3,4,5-trifluorophenyl)piperazine-1-carboxamide]
< 0.01	C[C@@H]1CN(c2cc(F)c(F)c(F)c2)C[C@H](C)N1C(=O)NC1CC2(C1)CN(Cc1ccccc1)C2 [Compound 45, (2R,6S)-N-{2-benzyl-2-azaspiro[3.3]heptan-6-yl}-2,6-dimethyl-4-(3,4,5-trifluroophenyl)piperazine-1-carboxamide]
< 0.01	C[C@@H]1CN(c2ccc(C(F)(F)F)cc2)C[C@H](C)N1C(=O)NC1CC2(C1)CN(Cc1ccccc1)C2 [Compound 47, (2R,6S)-N-{2-benzyl-2-azaspiro[3.3]heptan-6-yl}-2,6-dimethyl-4-[4-(trifluoromethyl)phenyl]pipera-zine-1-carboxamide]
< 0.01	C[C@@H]1CN(c2ccc(C(F)(F)F)cc2)C[C@@H](C)N1C(=O)NC1CC2(C1)CN(Cc1ccccc1)C2 [Compound 51, (2R,6R)-N-{2-benzyl-2-azaspiro[3.3]heptan-6-yl}-2,6-dimethyl-4-[4-(trifluoromethyl)phenyl]pipera-zine-1-carboxamide]
0.01 to 0.1	C[C@@H]1CN(c2cnc(C(F)(F)F)cn2)C[C@H](C)N1C(=O)NC1CC2(C1)CN(Cc1ccccc1)C2 [Compound 62, (2R,6S)—N-{2-Benzyl-2-azaspiro[3.3]heptan-6-yl}-2,6-dimethyl-4-[5-(trifluoromethyl)pyrazin-2-yl]piperazine-1-carboxamide]
0.1 to 1	C[C@@H]1CN(c2cnc(C(F)(F)F)cn2)C[C@@H](C)N1C(=O)NCC1CC2(C1)CN(Cc1ccccc1)C2 [Compound 63, (2R,6R)-N-({2-benzyl-2-azaspiro[3.3]heptan-6-yl}methyl)-2,6-dimethyl-4-[5-(trifluoromethyl)pyrazin-2-yl]piperazine-1-carboxamide]
0.1 to 1	C[C@@H]1CN(c2cnc(C(F)(F)F)cn2)C[C@@H](C)N1C(=O)NC1CC2(C1)CN(Cc1ccccc1)C2 [Compound 64, (2R,6R)-N-{2-benzyl-2-azaspiro[3.3]heptan-6-yl}-2,6-dimethyl-4-[5-(trifluoromethyl)pyrazin-2-yl]piperazine-1-carboxamide]
< 0.01	C[C@@H]1CN(c2ncc(C(F)(F)F)cn2)C[C@@H](C)N1C(=O)NC1CC2(C1)CN(Cc1ccccc1)C2 [Compound 65, (2R,6R)-N-{2-benzyl-2-azaspiro[3.3]heptan-6-yl}-2,6-dimethyl-4-[5-(trifluoromethyl)pyrimidin-2-yl]piperazine-1-carboxamide]
0.1 to 1	C[C@@H]1CN(c2ncc(C#N)cn2)C[C@H](C)N1C(=O)NC1CC2(C1)CN(Cc1ccccc1)C2 [Compound 66]
0.1 to 1	C[C@@H]1CN(c2cnc(C(F)(F)F)cn2)C[C@H](C)N1C(=O)NCC1CC2(C1)CN(Cc1ccccc1)C2 [Compound 67, (2R,6S)-N-({2-benzyl-2-azaspiro[3.3]hpetan-6-yl}methyl)-2,6-dimethyl-4-[5-(trifluoromethyl)pyrazin-2-yl]piperazine-1-carboxamide]
0.01 to 0.1	C[C@@H]1CN(c2ncc(C(F)(F)F)cn2)C[C@@H](C)N1C(=O)NCC1CC2(C1)CN(Cc1ccccc1)C2 [Compound 68, (2R,6R)-N-({2-benzyl-2-azaspiro[3.3]heptan-6-yl}methyl)-2,6-dimethyl-4-[5-(trifluoromethyl)pyrimidin-2-yl]piperazine-1-carboxamide]
0.01 to 0.1	C[C@@H]1CN(c2ncc(C(F)(F)F)cn2)C[C@H](C)N1C(=O)NCC1CC2(C1)CN(Cc1ccccc1)C2 [Compound 97, (2R,6S)-N-({2-benzyl-2-azaspiro[3.3]heptna-6-yl}methyl)-2,6-dimethyl-4-[5-(trifluoromethyl)pyrimidin-2-yl]piperazine-1-carboxamide]
0.1 to 1	O=C(OC1CC2(C1)CN(Cc1ccccc1)C2)N1CCN(c2cc(F)c(F)c(F)c2)CC1 [Compound 105, 2-benzyl-2-azaspiro[3.3]heptan-6-yl 4-(3,4,5-trifluorophenyl)piperazine-1-carboxylate]
